Test results reported in patent US8658650B2, “Substituted 1,1,3,1-tetraoxidobenzo[D][1,3,2]dithiazoles as MGLUR4 allosteric potentiators, compositions, and methods of treating neurological dysfunction” (Vanderbilt University, priority 2009, dated 2014).
Where two headings read alike, the source gives them in different places.

Assays:
mGluR4 = mGluR4 (UniProt Q14833); experiment: mGluR4 potentiation assay (activity table; fluorescence plate reader, compound then EC20 agonist); type: cell-based; conditions: for % GluMax: maximum extent of potentiation; for EC50: potentiation of mGluR4, species of receptor not given
Description: The disclosed compounds and compositions can be evaluated for their ability to act as a potentiator of metabotropic glutamate receptor activity, in particular mGluR4 activity, by any suitable known methodology known in the art. For example, Chinese Hamster Ovary (CHO) cells transfected with human mGluR4 or HEK cells co-transfected with rat mGluR4 and the G-protein regulated Inwardly Rectifying Potassium channel (GIRK) were plated in clear bottom assay plates for assay in a Hamamatsu FDSS Fluorometric Plate Reader. The cells were loaded with either a Ca2+-sensitive fluorescent dye Fluo-4 or the thallium responsive dye BTC, AM and the plates were washed and placed into a suitablekinetic plate reader. For human mGluR4 assays, a fluorescence baseline was established for 3-5 seconds, the disclosed compounds were then added to the cells, and the response in cells was measured. Approximately two and a half minutes later, a concentration of mGluR4 orthosteric agonist (e.g. glutamate or L-AP4) eliciting approximately 20% (EC20) of the maximal agonist response was added to the cells, and the response was measured. Two minutes later, a concentration of mGluR4 agonist (e.g. glutamate or L-AP4) eliciting 80% (EC80) of the maximal agonist response was added to the cells, and the response was measured. For rat mGluR4/GIRK experiments, a baseline was established for approximately five seconds, disclosed compounds were added, and either an EC20 or EC80 concentration of agonist was added approximately two and one half minutes later. Potentiation of the agonist response of mGluR4 by the disclosed compounds was observed as an increase in response to the EC20 concentration of agonist in the presence of compound compared to the response to agonist in the absence of compound. Similarly, antagonism of the agonist response of mGluR4 by the disclosed compounds was observed as a decrease in response to the EC80 concentration of agonist in the presence of compound compared to the response to agonist in the absence of compound.
The above described assay operated in two modes. In the first mode, a range of concentrations of the disclosed compounds are added to cells, followed by a single fixed concentration of agonist. If the compound acts as a potentiatior, an EC50 value for potentiation and a maximum extent of potentiation by the compound at this concentration of agonist is determined by non-linear curve fitting. If the compound acts as a noncompetitive antagonist, an IC50 value is determined by non-linear curve fitting. In the second mode, several fixed concentrations of the disclosed compounds are added to various wells on a plate, followed by a range in concentrations of agonist for each concentration of disclosed compound. The EC50 values for the agonist at each concentration of compound are determined by non-linear curve fitting. A decrease in the EC50 value of the agonist with increasing concentrations of the sample compound (a leftward shift of the agonist concentration-response curve) is an indication of the degree of mGluR4 potentiation at a given concentration of the sample compound. A decrease in the maximal response of the agonist with increasing concentrations of the sample compounds, with or without a rightward shift in agonist potency, is an indication of the degree of noncompetitive antagonism at mGluR4. The second mode also indicates whether the sample compounds also affect the maximum response to mGluR4 to agonists.
These compounds are positive allosteric modulators (potentiators) of human and rat mGluR4 and were selective for mGluR4 compared to the other seven subtypes of metabotropic glutamate receptors.

[1] = intraperitoneal pharmacokinetics in male SD rats (plasma and brain); type: in vivo, rat; parameters: AUC(0-8) Brain: unit not given here; conditions: 10 mg/kg ip; for AUC(0-8) Brain / AUC(0-t): 0-8 h; for Log BB: brain/plasma
Description: FIG. 2 is a graph showing intraperitoneal pharmacokinetics of a compound of the present invention in male SD rats (N=3); Formulation: 10% tween 80 microsuspension; Dose: 10 mg/kg; Time points: 0.5 h, 1 h, 2 h, 4 h & 8 h; data are summarized in Table 1 and Table 2.
FIG. 3 is a graph showing intraperitoneal pharmacokinetics of a compound of the present invention in male SD rats (˜300 g); Dose:10 mg/kg, ip; Time points: 0.5 h, 1 h & 8 h (n=3); data are summarized in Table 1 and Table 2.
FIG. 4 is a graph showing intraperitoneal pharmacokinetics of a compound of the present invention in male SD rats (˜300 g); Dose:10 mg/kg, ip; Time points: 0.5 h, 1 h & 8 h (n=3); data are summarized in Table 1 and Table 2.
Additionally, certain exemplary disclosed compounds were evaluated for pharmacokinetic efficacy.

[2] = rat, brain, read-out: Elimination T1/2 Brain (converted)
[3] = rat, brain, read-out: Tmax Brain
[4] = rat, plasma, read-out: Elimination T1/2 Plasma (converted)
[5] = rat, plasma, read-out: Tmax Plasma

Structure (SMILES)	% GluMax (mGluR4) [%]	EC50 (mGluR4) [nM]	also measured
O=C(Nc1ccc(N2S(=O)(=O)c3ccccc3S2(=O)=O)cc1)c1ccncn1 [Example 6, N-(4-(1,1,3,3-tetraoxidobenzo[d][1,3,2]dithiazol-2-yl)phenyl)pyrimidine-4-carboxamide]	247	286	–
O=C(Nc1ccc(N2S(=O)(=O)c3ccccc3S2(=O)=O)cc1)C1CCCCO1 (centres unmarked) [Example 9, N-(4-(1,1,3,3-tetraoxidobenzo[d][1,3,2]dithiazol-2-yl)phenyl)tetrahydro-2H-pyran-2-carboxamide]	166	914	–
O=C(Nc1ccc(N2S(=O)(=O)c3ccccc3S2(=O)=O)cc1)c1ncc(F)cc1F [Example 11, 3,5-Difluoro-N-(4-(1,1,3,3-tetraoxidobenzo[d][1,3,2]dithiazol-2-yl)phenyl)picolinamide]	195	1650	–
O=C(Nc1ccc(N2S(=O)(=O)c3ccccc3S2(=O)=O)cc1F)c1ccco1 [Example 12, N-(2-fluoro-4-(1,1,3,3-tetraoxidobenzo[d][1,3,2]dithiazol-2-yl)phenyl)furan-2-carboxamide]	125	9130	–
O=C(Nc1ccc(N2S(=O)(=O)c3ccccc3S2(=O)=O)cc1F)c1ccccn1 [Example 13, N-(2-fluoro-4-(1,1,3,3-tetraoxidobenzo[d][1,3,2]dithiazol-2-yl)phenyl)picolinamide]	62	739	–
O=C(Nc1ccc(F)cn1)c1ccc(N2S(=O)(=O)c3ccccc3S2(=O)=O)cc1 [Example 15, N-(5-fluoropyridin-2-yl)-4-(1,1,3,3-tetraoxidobenzo[d][1,3,2]dithiazol-2-yl)benzamide]	84	272	–
O=S1(=O)c2ccccc2S(=O)(=O)N1c1ccc(NCc2ccccn2)cc1 [Example 16, 2-(4-((pyridine-2-ylmethyl)amino)phenyl)benzo[d][1,3,2]dithiazole-1,1,3,3-tetraoxide]	161	2140	–
O=S1(=O)c2ccccc2S(=O)(=O)N1c1ccc(Nc2ccccn2)nc1 [Example 18, 2-(6-(pyridin-2-ylamino)pyridin-3-yl)benzo[d][1,3,2]dithiazole 1,1,3,3-tetraoxide]	73	5450	–
O=C(Nc1ccc(N2S(=O)(=O)c3ccccc3S2(=O)=O)cc1)C1CCCCC1 [drawing 138]	–	–	V/F [1]: 6.7 L; Cmax Brain ([1]; brain): 983.43 ± 188.76 ng/mL or g; AUC(0-8) Brain ([1]; brain): 6295.60 ± 876.30; half-life [1, 2]: 12.2 h; Tmax [1, 3]: 0.5 h; Log BB ([1]; rat): 0.26; Cmax ([1]; rat, plasma): 1930 ± 845 ng/mL; AUC(0-t) ([1]; rat, plasma): 3400 ± 2990 ng·h/mL; half-life [1, 4]: 1.67 h; Tmax [1, 5]: 0.5 h; CL/F ([1]; rat, plasma): 46.7 mL/min/kg
O=C(Nc1ccc(N2S(=O)(=O)c3ccccc3S2(=O)=O)cc1)c1ccccc1 [drawing 139]	–	–	V/F [1]: 5.2 L; Cmax Brain ([1]; brain): 775.51 ± 90.00 ng/mL or g; AUC(0-8) Brain ([1]; brain): 405.32 ± 98.82; Log BB [1]: −0.9; Tmax [1, 3]: 1 h; Cmax ([1]; rat, plasma): 1470 ± 41 ng/mL; AUC(0-t) ([1]; rat, plasma): 3280 ± 244 ng·h/mL; half-life [1, 4]: 1.21 h; Tmax [1, 5]: 1 h; CL/F ([1]; rat, plasma): 51.2 mL/min/kg
O=C(Nc1ccc(N2S(=O)(=O)c3ccccc3S2(=O)=O)cc1)c1ccco1 [drawing 140]	–	–	V/F [1]: 1.49 L; Cmax Brain ([1]; brain): 2842.81 ± 544.93 ng/mL or g; AUC(0-8) Brain ([1]; brain): 12937.04 ± 2079.74; Log BB [1]: −0.19; half-life [1, 2]: 3.79 h; Tmax [1, 3]: 1 h; Cmax ([1]; rat, plasma): 5690 ± 1360 ng/mL; AUC(0-t) ([1]; rat, plasma): 20500 ± 5180 ng·h/mL; half-life [1, 4]: 2.39 h; Tmax [1, 5]: 1 h; CL/F ([1]; rat, plasma): 7.16 mL/min/kg

Continued by falling EC50 (mGluR4), values first:

% GluMax (mGluR4) [%]	EC50 (mGluR4) [nM]	Structure (SMILES)	also measured
146	203	O=C(Nc1ccc(N2S(=O)(=O)c3ccccc3S2(=O)=O)cc1)c1ccccc1 [Example 1, N-(4-(1,1,3,3-tetraoxidobenzo[d][1,3,2]dithiazol-2-yl)phenyl)benzamide]	–
198	179	O=C(Nc1ccc(N2S(=O)(=O)c3ccccc3S2(=O)=O)cc1)c1cccc(F)n1 [Example 5, 6-Fluoro-N-(4-(1,1,3,3-tetraoxidobenzo[d][1,3,2]dithiazol-2-yl)phenyl)picolinamide]	–
216	142	O=C(Nc1ccc(N2S(=O)(=O)c3ccccc3S2(=O)=O)cc1)c1nccs1 [Example 7, N-(4-(1,1,3,3-tetraoxidobenzo[d][1,3,2]dithiazol-2-yl)phenyl)thiazole-2-carboxamide]	–
165	134	O=S1(=O)c2ccccc2S(=O)(=O)N1c1ccc(NC2(c3ccccn3)CC2)cc1 [Example 17]	–
96	128	O=C(Nc1ccc(N2S(=O)(=O)c3ccccc3S2(=O)=O)cc1)C1CCCCC1 [Example 3, N-(4-(1,1,3,3-tetraoxidobenzo[d][1,3,2]dithiazol-2-yl)phenyl)cyclohexanecarboxamide]	–
39	113	O=C(Nc1ccccn1)c1ccc(N2S(=O)(=O)c3ccccc3S2(=O)=O)cc1 [Example 14, N-(pyridin-2-yl)-4-(1,1,3,3-tetraoxidobenzo[d][1,3,2]dithiazol-2-yl)benzamide]	–
231	68.8	O=C(Nc1ccc(N2S(=O)(=O)c3ccccc3S2(=O)=O)cc1)c1cscn1 [Example 10, N-(4-(1,1,3,3-tetraoxidobenzo[d][1,3,2]dithiazol-2-yl)phenyl)thiazole-4-carboxamide]	–
284	50	O=C(Nc1ccc(N2S(=O)(=O)c3ccccc3S2(=O)=O)cc1)c1ccco1 [Example 2, N-(4-(1,1,3,3-tetraoxidobenzo[d][1,3,2]dithiazol-2-yl)phenyl)furan-2-carboxamide]	–
69	49.6	O=C(Nc1ccc(N2S(=O)(=O)c3ccccc3S2(=O)=O)cc1)c1ncccc1F [Example 8, 3-Fluoro-N-(4-(1,1,3,3-tetraoxidobenzo[d][1,3,2]dithiazol-2-yl)phenyl)picolinamide]	–
254	38.1	O=C(Nc1ccc(N2S(=O)(=O)c3ccccc3S2(=O)=O)cc1)c1ccccn1 [Example 4, N-(4-(1,1,3,3-tetraoxidobenzo[d][1,3,2]dithiazol-2-yl)phenyl)picolinamide]	–
